Reference: the C3SDB collision cross section collection
“And” between values parts separate entries of the source, which are not always exact repeats. Equal entries are not always repeated. Structures can show the parent of a compound that is named as a salt.

What was measured:
[1] = instrument: TW, calibrated with polyalanine and drug standards
[2] = instrument: DT, single field, calibrated with ESI Low Concentration Tuning Mix (Agilent)

Row | collision cross section (N2) ([2]; [M+H]+) | collision cross section (N2) ([2]; [M+Na]+) | collision cross section (N2) ([2]; [M-H]-) | SMILES | other results
1 | – | – | – | CC(=O)OCC[N+](C)(C)C [ACETYLCHOLINE] | collision cross section (N2) ([1]; [M]+): 130.1 Å²; collision cross section (N2) ([2]; [M+]+): 129.5 Å²
2 | 124.9 Å² | 137 Å² and 137.4 Å² | 119.6 Å² and 119.8 Å² | Nc1ncnc2nc[nH]c12 [ADENINE] | collision cross section (N2) ([1]; [M+H]+): 122.4 Å²
3 | 155.6 Å² and 161.4 Å² | 165.5 Å² | 157.6 Å² | Nc1ncnc2c1ncn2[C@@H]1O[C@H](CO)[C@@H](O)[C@H]1O [ADENOSINE] | collision cross section (N2) ([1]; [M+H]+): 156.9 Å²
4 | 149.7 Å² | 159.9 Å² | – | O=C(O)CCCC[C@@H]1SC[C@@H]2NC(=O)N[C@@H]21 [BIOTIN] | collision cross section (N2) ([1]; [M+H]+): 148 Å²; collision cross section (N2) ([2]; [M+K]+): 160.1 Å²; collision cross section (N2) ([2]; [M+Na-2H]-): 152.9 Å²
5 | 188.3 Å² | 213.2 Å² | 191.4 Å² | C[C@]12CCC(=O)C=C1CC[C@@H]1[C@@H]2C(=O)C[C@@]2(C)[C@H]1CC[C@]2(O)C(=O)CO [CORTISONE] | collision cross section (N2) ([1]; [M+H]+): 184.4 Å²
6 | 149.4 Å² | 151.2 Å² | 143 Å² | N[C@@H](CSSC[C@H](N)C(=O)O)C(=O)O [CYSTINE] | collision cross section (N2) ([1]; [M+H]+): 148.1 Å²; collision cross section (N2) ([2]; [M+Na-2H]-): 147.3 Å²
7 | 151 Å² | 159.7 Å² | 149.8 Å² | Nc1ccn([C@@H]2O[C@H](CO)[C@@H](O)[C@H]2O)c(=O)n1 [CYTIDINE] | collision cross section (N2) ([1]; [M+H]+): 151.1 Å²
8 | 152.3 Å² and 158.1 Å² | 161.6 Å² | 155.3 Å² | Nc1ncnc2c1ncn2[C@H]1C[C@H](O)[C@@H](CO)O1 [DEOXYADENOSINE] | collision cross section (N2) ([1]; [M+H]+): 154.6 Å²
9 | – | 144.7 Å² | – | O=C1O[C@H](CO)[C@@H](O)[C@H](O)[C@H]1O [GLUCONOLACTONE] | collision cross section (N2) ([1]; [M+H]+): 127.6 Å²; collision cross section (N2) ([2]; [M+H2O-H]-): 132.6 Å²; collision cross section (N2) ([2]; [M+H20-H]-): 132.5 Å²
10 | 127.2 Å² | 134.4 Å² | 116.9 Å² | O=c1nc[nH]c2nc[nH]c12 [HYPOXANTHINE] | collision cross section (N2) ([1]; [M+H]+): 123.1 Å²; collision cross section (N2) ([2]; [M+Na-2H]-): 134.4 Å²
11 | 209.1 Å² | 194.3 Å² | – | N[C@@H](Cc1cc(I)c(Oc2ccc(O)c(I)c2)c(I)c1)C(=O)O [LIOTHYRONINE] | collision cross section (N2) ([1]; [M+H]+): 205.3 Å²
12 | – | 141.1 Å² | – | OC[C@@H](O)[C@@H](O)[C@H](O)[C@H](O)CO [MANNITOL] | collision cross section (N2) ([1]; [M+Na]+): 139.6 Å²
13 | 153.2 Å² | – | – | COc1ccc2[nH]cc(CCNC(C)=O)c2c1 [MELATONIN] | collision cross section (N2) ([1]; [M+H]+): 152 Å²; collision cross section (N2) ([2]; [M+K]+): 158.3 Å²
14 | – | 148.6 Å² | 131.3 Å² | OC1C(O)C(O)C(O)C(O)C1O (stereo not drawn) [MYOINOSITOL] | –
15 | – | 142.4 Å² | 136.9 Å² | CC(=O)N[C@@H](CCC(=O)O)C(=O)O [N-ACETYLGLUTAMATE] | collision cross section (N2) ([2]; [M+Na-2H]-): 143.3 Å²
16 | – | 149.9 Å² | 140.5 Å² | CC(=O)N[C@@H](CC(C)C)C(=O)O [N-ACETYLLEUCINE] | –
17 | 166.5 Å² | 168.7 Å² | 158.5 Å² and 163.8 Å² | CC(=O)N[C@H]1[C@H]([C@H](O)[C@H](O)CO)OC(O)(C(=O)O)C[C@@H]1O (stereo partly drawn) [N-ACETYLNEURAMINATE] | collision cross section (N2) ([2]; [M+Na-2H]-): 171.4 Å²
18 | 132.2 Å² | – | 129.5 Å² | CN[C@@H](CCC(=O)O)C(=O)O [N-METHYLGLUTAMATE] | collision cross section (N2) ([2]; [M+Na-2H]-): 137.2 Å²
19 | – | – | 121 Å² | O=C([O-])c1cccnc1 [NICOTINATE] | –
20 | – | 137.9 Å² | 126.5 Å² | O=C(O)CCCC(=O)C(=O)O [OXOADIPATE] | collision cross section (N2) ([2]; [M+Na-2H]-): 132.2 Å²
21 | – | – | 167.3 Å² | CCCCCC/C=C\CCCCCCCC(=O)O [PALMITOLEATE] | –
22 | 213.9 Å² | 219.7 Å² | – | CCCCCCCCCCCCCCCC(=O)OC(CC(=O)[O-])C[N+](C)(C)C (stereo not drawn) [PALMITOYLCARNITINE] | –
23 | – | 138 Å² and 138.4 Å² | – | C=C(OP(=O)(O)O)C(=O)O [PHOSPHOENOLPYRUVATE] | –
24 | – | 134.5 Å² | – | O=C(O)CP(=O)(O)O [PHOSPHONOACETATE] | –

Row | collision cross section (N2) ([2]; [M+H]+) | collision cross section (N2) ([2]; [M+Na]+) | collision cross section (N2) ([2]; [M-H]-) | SMILES | other results
25 | – | – | 206.2 Å² | CC(=O)[C@H]1CC[C@H]2[C@@H]3CC=C4C[C@@H](OS(=O)(=O)O)CC[C@]4(C)[C@H]3CC[C@]12C [PREGNENOLONE SULFATE] | –
26 | 125.1 Å² | – | 124.5 Å² | O=C(O)[C@@H]1CCCN1 [PROLINE] | –
27 | 241.3 Å² | – | – | C=Cc1c(C)c2cc3[nH]c(cc4nc(cc5nc(cc1[nH]2)C(C)=C5CCC(=O)O)C(CCC(=O)O)=C4C)c(C)c3C=C [PROTOPORPHYRIN] | –
28 | – | 137.6 Å² | – | OCC1(O)OC[C@@H](O)[C@@H](O)[C@H]1O (stereo partly drawn) [PSICOSE] | –
29 | 128.6 Å² | 143.4 Å² | 128.1 Å² | Nc1nc(=O)c2nccnc2[nH]1 [PTERIN] | –
30 | 151.3 Å² | 160.8 Å² | 149.4 Å² | Cc1ncc(COP(=O)(O)O)c(C=O)c1O [PYRIDOXAL-PHOSPHATE] | collision cross section (N2) ([2]; [M+Na-2H]-): 153.2 Å²
31 | – | 151.7 Å² | 134.5 Å² | O=C(O)C1(O)C[C@@H](O)C(O)[C@H](O)C1 (stereo partly drawn) [QUINATE] | –
32 | – | – | 126.1 Å² | CC(=O)Oc1cccc(O)c1 [RESORCINOL MONOACETATE] | –
33 | – | 136.2 Å² | 125.8 Å² | OC[C@@H](O)C(O)[C@@H](O)CO (stereo partly drawn) [RIBITOL] | –
34 | 137.1 Å² | 138.2 Å² | 130 Å² | NC(CSCC(=O)O)C(=O)O (stereo not drawn) [S-CARBOXYMETHYLCYSTEINE] | collision cross section (N2) ([2]; [M+Na-2H]-): 136.7 Å²
35 | – | – | 119.8 Å² | O=C(O)c1ccccc1[O-] [SALICYLATE] | –
36 | 148.6 Å² | 151.5 Å² | – | NCCCNCCCCNCCCN [SPERMINE] | –
37 | 189 Å² | 191.1 Å² | – | CCCCCCCCCCCCCCC[C@@H](O)[C@@H](N)CO [SPHINGANINE] | –
38 | 131.2 Å² and 136.9 Å² | – | – | Cn1cnc2c1c(=O)[nH]c(=O)n2C [THEOBROMINE] | –
39 | 126.7 Å² | – | 120.2 Å² | C[C@@H](O)[C@H](N)C(=O)O [THREONINE] | –
40 | 127.9 Å² | 139.3 Å² | 126.2 Å² and 126.3 Å² | O=C(O)[C@@H]1C[C@@H](O)CN1 [TRANS-4-HYDROXY-L-PROLINE] | –
41 | – | 139.8 Å² | 118.9 Å² | O=C(O)c1c[nH]c(=O)[nH]c1=O [URACIL 5-CARBOXYLATE] | –
42 | 130.7 Å² | – | – | O=c1[nH]c(=O)c2[nH]c(=O)[nH]c2[nH]1 [URATE] | –
43 | 187 Å² | 188.8 Å² | 180.1 Å² and 180.2 Å² | O=c1ccn([C@@H]2O[C@H](COP(=O)(O)OP(=O)(O)OP(=O)(O)O)[C@@H](O)[C@H]2O)c(=O)[nH]1 [URIDINE TRIPHOSPHATE] | collision cross section (N2) ([2]; [M+Na-2H]-): 190.2 Å²
44 | – | 160.9 Å² | 150.7 Å² | O=c1ccn([C@@H]2O[C@H](CO)[C@@H](O)[C@H]2O)c(=O)[nH]1 [URIDINE] | –
45 | 129.9 Å² | – | 120.6 Å² | O=c1[nH]c(=O)c2[nH]cnc2[nH]1 [XANTHINE] | –
46 | 140.4 Å² | 147.7 Å² | 134.3 Å² | O=C(O)c1cc(=O)c2cccc(O)c2[nH]1 [XANTHURENATE] | –
47 | – | 135.4 Å² | 124.8 Å² | OC[C@@H](O)C(O)[C@@H](O)CO (stereo partly drawn) [XYLITOL] | –
48 | – | 134.9 Å² | – | OC1OC[C@@H](O)[C@H](O)[C@H]1O (stereo partly drawn) [XYLOSE] | –

Row | SMILES | collision cross section (N2) ([2]; [M+H]+) | collision cross section (N2) ([2]; [M+Na]+) | collision cross section (N2) ([2]; [M-H]-) | other results
49 | CNCCc1c[nH]c2ccccc12 [N-METHYLTRYPTAMINE] | 142.5 Å² | – | – | –
50 | COc1cc(C(O)CN)ccc1O (stereo not drawn) [NORMETANEPHRINE] | – | 155 Å² | – | –
51 | O=C(O)CCCCCCCCCCCO [OMEGA-HYDROXYDODECANOATE] | – | 160.3 Å² | 152.6 Å² | –
52 | CN(CC(=O)O)/C(N)=N/P(=O)(O)O [PHOSPHOCREATINE] | 144.6 Å² and 144.8 Å² | – | – | collision cross section (N2) ([2]; [M+Na-2H]-): 142.7 Å² and 142.8 Å²
53 | O=C/C=C/c1ccccc1 [TRANS-CINNAMALDEHYDE] | 121.5 Å² | – | – | –
